From patent publication US20230295109A1, “PYRIDINONE COMPOUNDS FOR THE TREATMENT OF AUTOIMMUNE DISEASE” (F. Hoffmann-La Roche AG, priority 2020, published 2023)

These compounds were tested against T1, human TLR7 (Homo sapiens, UniProt Q9NYK1) (assay: HEK293-Blue-hTLR-7 cells assay). Details: HEK293-Blue-hTLR7 cells, R848 stimulation, 20 hrs, SEAP reporter; read-out: HEK/hTLR7 IC50.
T1 construct: host or cells: HEK293 (HEK-Blue hTLR7)
T1 sequence (Q9NYK1 27-1049): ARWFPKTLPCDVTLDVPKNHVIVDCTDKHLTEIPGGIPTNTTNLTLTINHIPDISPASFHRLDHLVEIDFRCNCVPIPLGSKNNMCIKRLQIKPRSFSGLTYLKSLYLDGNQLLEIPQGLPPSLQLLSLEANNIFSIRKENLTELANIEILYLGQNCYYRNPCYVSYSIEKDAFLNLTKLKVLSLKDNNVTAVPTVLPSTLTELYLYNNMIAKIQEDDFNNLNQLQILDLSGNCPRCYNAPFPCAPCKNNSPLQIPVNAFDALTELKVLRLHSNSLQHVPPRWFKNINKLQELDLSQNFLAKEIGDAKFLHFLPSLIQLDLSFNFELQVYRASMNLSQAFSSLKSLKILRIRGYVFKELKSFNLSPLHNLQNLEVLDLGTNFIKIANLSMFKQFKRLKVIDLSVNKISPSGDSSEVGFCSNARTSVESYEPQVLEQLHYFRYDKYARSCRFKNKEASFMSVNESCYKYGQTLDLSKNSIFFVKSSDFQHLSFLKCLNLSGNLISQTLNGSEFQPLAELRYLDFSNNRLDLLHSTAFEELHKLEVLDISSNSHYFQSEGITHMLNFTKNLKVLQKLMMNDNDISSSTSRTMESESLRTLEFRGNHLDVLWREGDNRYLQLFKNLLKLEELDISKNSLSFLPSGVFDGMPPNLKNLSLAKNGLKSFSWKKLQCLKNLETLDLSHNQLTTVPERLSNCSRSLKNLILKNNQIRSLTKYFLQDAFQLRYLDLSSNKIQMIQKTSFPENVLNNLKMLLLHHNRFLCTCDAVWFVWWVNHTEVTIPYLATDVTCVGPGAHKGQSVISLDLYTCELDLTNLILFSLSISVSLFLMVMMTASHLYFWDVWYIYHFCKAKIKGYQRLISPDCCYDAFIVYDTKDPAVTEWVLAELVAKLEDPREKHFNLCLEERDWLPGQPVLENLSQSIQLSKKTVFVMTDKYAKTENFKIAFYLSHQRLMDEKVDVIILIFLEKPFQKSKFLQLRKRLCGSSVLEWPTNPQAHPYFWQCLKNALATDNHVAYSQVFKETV
Assay type: cell-based
From the text: A stable HEK293-Blue-hTLR-7 cell line was purchased from InvivoGen (Cat.#: hkb-htlr7, San Diego, California, USA). These cells were originally designed for studying the stimulation of human TLR7 by monitoring the activation of NF-κB. A SEAP (secreted embryonic alkaline phosphatase) reporter gene was placed under the control of the IFN-β minimal promoter fused to five NF-κB and AP-1-binding sites. The SEAP was induced by activating NF-κB and AP-1 via stimulating HEK-Blue hTLR7 cells with TLR7 ligands. Therefore the reporter expression was declined by TLR7 antagonist under the stimulation of a ligand, such as R848 (Resiquimod), for incubation of 20 hrs. The cell culture supernatant SEAP reporter activity was determined using QUANTI-Blue™ kit (Cat.#: rep-qb1, Invivogen, San Diego, Ca, USA) at a wavelength of 640 nm, a detection medium that turns purple or blue in the presence of alkaline phosphatase.
HEK293-Blue-hTLR7 cells were incubated at a density of 250,000~450,000 cells/mL in a volume of 170 µL in a 96-well plate in Dulbecco’s Modified Eagle’s medium (DMEM) containing 4.5 g/L glucose, 50 U/mL penicillin, […], […], 2 mM L-glutamine, 10% (v/v) heat-inactivated fetal bovine serum with addition of 20 µL test compound in a serial dilution in the presence of final DMSO at 1% and 10 µL of 20uM R848 in above DMEM, perform incubation under 37° C. in a CO2 incubator for 20 hrs. Then 20 µL of the supernatant from each well was incubated with 180 µL Quanti-blue substrate solution at 37° C. for 2 hrs and the absorbance was read at 620 \~655 nm using a spectrophotometer. The signaling pathway that TLR7 activation leads to downstream NF-κB activation has been widely accepted, and therefore similar reporter assay was modified for evaluating TLR7 antagonist.
With CCc1nc(N2CCN3CCN(c4cnc(N5CC6(CNCCO6)C5)nc4)CC3C2)ccc1-c1cc(C)c(=O)n(C)c1 (stereo not shown) [Example 19, 5-[2-ethyl-6-[2-[2-(5-oxa-2,8-diazaspiro[3.5]nonan-2-yl)pyrimidin-5-yl]-3,4,6,7,9,9a-hexahydro-1H-pyrazino[1,2-a]pyrazin-8-yl]-3-pyridyl]-1,3-dimethyl-pyridin-2-one] the IC50 was 3 nM. Compound Cc1cc(-c2ccc(N3CCN(Cc4ccc(N5CCNCC5)cn4)CC3)nc2C(C)C)cn(C)c1=O [Example 7, 5-[2-isopropyl-6-[4-[(5-piperazin-1-yl-2-pyridyl)methyl]piperazin-1-yl]-3-pyridyl]-1,3-dimethyl-pyridin-2-one] has an IC50 of 5 nM. For Cc1cc(-c2ccc(N3CCN(Cc4ccc(N5CCNCC5)nc4)CC3)nc2C(C)C)cn(C)c1=O [Example 11, 5-[2-isopropyl-6-[4-[(6-piperazin-1-yl-3-pyridyl)methyl]piperazin-1-yl]-3-pyridyl]-1,3-dimethyl-pyridin-2-one], the IC50 was 8 nM. Cc1cc(-c2ccc(N3CCN(c4ccc5c(n4)CCNC5)CC3)nc2C(C)C)cn(C)c1=O [Example 15, 5-[2-isopropyl-6-[4-(5,6,7,8-tetrahydro-1,6-naphthyridin-2-yl)piperazin-1-yl]-3-pyridyl]-1,3-dimethyl-pyridin-2-one] was tested, and the IC50 was 10 nM. Cc1cc(-c2ccc(N3CCN(Cc4ccc(N5CCNCC5)cc4)CC3)nc2C(C)C)cn(C)c1=O [Example 13, 5-[2-isopropyl-6-[4-[(4-piperazin-1-ylphenyl)methyl]piperazin-1-yl]-3-pyridyl]-1,3-dimethyl-pyridin-2-one] gave an IC50 of 12 nM. Compound CCc1nc(N2CCN(Cc3ccc(N4CCNCC4)cc3)CC2)ccc1-c1cc(C)c(=O)n(C)c1 [Example 5, 5-[2-ethyl-6-[4-[(4-piperazin-1-ylphenyl)methyl]piperazin-1-yl]-3-pyridyl]-1,3-dimethyl-pyridin-2-one] has an IC50 of 6 nM. CCc1nc(N2CCN(Cc3cnc(N4CC5(CNCCO5)C4)nc3)CC2)ccc1-c1cc(C)c(=O)n(C)c1 [Example 1, 5-[2-ethyl-6-[4-[[2-(5-oxa-2,8-diazaspiro[3.5]nonan-2-yl)pyrimidin-5-yl]methyl]piperazin-1-yl]-3-pyridyl]-1,3-dimethyl-pyridin-2-one] gave an IC50 of 9 nM. Cc1cc(-c2ccc(N3CCN(Cc4ncc(N5CCNCC5)cn4)CC3)nc2C(C)C)cn(C)c1=O [Example 12, 5-[2-isopropyl-6-[4-[(5-piperazin-1-ylpyrimidin-2-yl)methyl]piperazin-1-yl]-3-pyridyl]-1,3-dimethyl-pyridin-2-one] gave an IC50 of 8 nM. Cc1cc(-c2ccc(N3CCN(Cc4cnc(N5CC(C)(N)C5)nc4)CC3)nc2C(C)C)cn(C)c1=O [Example 10, 5-[6-[4-[[2-(3-amino-3-methyl-azetidin-1-yl)pyrimidin-5-yl]methyl]piperazin-1-yl]-2-isopropyl-3-pyridyl]-1,3-dimethyl-pyridin-2-one] was tested, and the IC50 was 7 nM. Work on CCc1nc(N2CCN(Cc3ccc(N4CC5(CNCCO5)C4)nc3)CC2)ccc1-c1cc(C)c(=O)n(C)c1 [Example 2, 5-[2-ethyl-6-[4-[[6-(5-oxa-2,8-diazaspiro[3.5]nonan-2-yl)-3 pyridyl]methyl]piperazin-1-yl]-3-pyridyl]-1,3-dimethyl-pyridin-2-one] yielded an IC50 of 10 nM. In the case of CCc1nc(N2CCN(Cc3cnc(N4CC(C)(N)C4)nc3)CC2)ccc1-c1cc(C)c(=O)n(C)c1 [Example 3, 5-[6-[4-[[2-(3-amino-3-methyl-azetidin-1-yl)pyrimidin-5-yl]methyl]piperazin-1-yl]-2-ethyl-3-pyridyl]-1,3-dimethyl-pyridin-2-one], the IC50 is reported as 14 nM. CCc1nc(N2CCN(Cc3cnc(N4CCOC[C@@H](N)C4)nc3)CC2)ccc1-c1cc(C)c(=O)n(C)c1 [Example 4, 5-[6-[4-[[2-[(6S)-6-amino-1,4-oxazepan-4-yl]pyrimidin-5-yl]methyl]piperazin-1-yl]-2-ethyl-3-pyridyl]-1,3-dimethyl-pyridin-2-one] was tested, and the IC50 was 24 nM. Work on Cc1cc(-c2ccc(N3CCN(Cc4ccc(N5CCNCC5)cc4)CC3)nc2C(F)F)cn(C)c1=O [Example 17, 5-[2-(difluoromethyl)-6-[4-[(4-piperazin-1-ylphenyl)methyl]piperazin-1-yl]-3-pyridyl]-1,3-dimethyl-pyridin-2-one] yielded an IC50 of 33 nM. Cc1cc(-c2ccc(N3CCN(Cc4cnc(N5CCNCC5)cn4)CC3)nc2C(C)C)cn(C)c1=O [Example 8, 5-[2-isopropyl-6-[4-[(5-piperazin-1-ylpyrazin-2-yl)methyl]piperazin-1-yl]-3-pyridyl]-1,3-dimethyl-pyridin-2-one] gave an IC50 of 5 nM. Cc1cc(-c2ccc(N3CCN4CCN(c5ccc(N6CCNCC6)nc5)CC4C3)nc2C(C)C)cn(C)c1=O (stereo not shown) [Example 16, 5-[2-isopropyl-6-[8-(6-piperazin-1-yl-3-pyridyl)-3,4,6,7,9,9a-hexahydro-1H-pyrazino[1,2-a]pyrazin-2-yl]-3-pyridyl]-1,3-dimethyl-pyridin-2-one] gave an IC50 of 2 nM. Work on Cc1cc(-c2ccc(N3CCN(Cc4cnc(N5CCNCC5)nc4)CC3)nc2C(C)C)cn(C)c1=O [Example 9, 5-[2-isopropyl-6-[4-[(2-piperazin-1-ylpyrimidin-5-yl)methyl]piperazin-1-yl]-3-pyridyl]-1,3-dimethyl-pyridin-2-one] yielded an IC50 of 7 nM. Compound Cc1cc(-c2ccc(N3CCC(N4CCNCC4)CC3)nc2C(C)C)cn(C)c1=O [Example 18, 5-[2-isopropyl-6-(4-piperazin-1-yl-1-piperidyl)-3-pyridyl]-1,3-dimethyl-pyridin-2-one] has an IC50 of 5 nM. For Cc1cc(-c2ccc(N3CCN(Cc4cccc(N5CCNCC5)c4)CC3)nc2C(C)C)cn(C)c1=O [Example 14, 5-[2-isopropyl-6-[4-[(3-piperazin-1-ylphenyl)methyl]piperazin-1-yl]-3-pyridyl]-1,3-dimethyl-pyridin-2-one], the IC50 was 18 nM. Cc1cc(-c2ccc(N3CCN(Cc4cnc(N5CC6(CNCCO6)C5)nc4)CC3)nc2C(C)C)cn(C)c1=O [Example 6, 5-[2-isopropyl-6-[4-[[2-(5-oxa-2,8-diazaspiro[3.5]nonan-2-yl)pyrimidin-5-yl]methyl]piperazin-1-yl]-3-pyridyl]-1,3-dimethyl-pyridin-2-one] gave an IC50 of 5 nM.
